Results taken from patent US20240174662A1, “SMALL MOLECULE INHIBITORS OF SALT INDUCIBLE KINASES” (Janssen Biotech, Inc., priority 2021, published 2024).

These molecules were tested against SIK2 (Homo sapiens (Human), UniProt Q9H0K1) (assay: SIK2 Enzymatic Assay Version 2 (High ATP)). Conditions: 3 mM ATP and 200 μM HDAC5tide final, ADP-Glo Max luminescence.
Assay type: biochemical
How it was run: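 Luminescent ADP-Glo Max read-out: depletion reagent 2 h, then detection reagent 1 h. Before the reaction, compounds were incubated 30 min with enzyme added at 6 nM (twice final concentration), with all steps at room temperature.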

Chain of SIK2 (Q9H0K1 whole entry, species assumed): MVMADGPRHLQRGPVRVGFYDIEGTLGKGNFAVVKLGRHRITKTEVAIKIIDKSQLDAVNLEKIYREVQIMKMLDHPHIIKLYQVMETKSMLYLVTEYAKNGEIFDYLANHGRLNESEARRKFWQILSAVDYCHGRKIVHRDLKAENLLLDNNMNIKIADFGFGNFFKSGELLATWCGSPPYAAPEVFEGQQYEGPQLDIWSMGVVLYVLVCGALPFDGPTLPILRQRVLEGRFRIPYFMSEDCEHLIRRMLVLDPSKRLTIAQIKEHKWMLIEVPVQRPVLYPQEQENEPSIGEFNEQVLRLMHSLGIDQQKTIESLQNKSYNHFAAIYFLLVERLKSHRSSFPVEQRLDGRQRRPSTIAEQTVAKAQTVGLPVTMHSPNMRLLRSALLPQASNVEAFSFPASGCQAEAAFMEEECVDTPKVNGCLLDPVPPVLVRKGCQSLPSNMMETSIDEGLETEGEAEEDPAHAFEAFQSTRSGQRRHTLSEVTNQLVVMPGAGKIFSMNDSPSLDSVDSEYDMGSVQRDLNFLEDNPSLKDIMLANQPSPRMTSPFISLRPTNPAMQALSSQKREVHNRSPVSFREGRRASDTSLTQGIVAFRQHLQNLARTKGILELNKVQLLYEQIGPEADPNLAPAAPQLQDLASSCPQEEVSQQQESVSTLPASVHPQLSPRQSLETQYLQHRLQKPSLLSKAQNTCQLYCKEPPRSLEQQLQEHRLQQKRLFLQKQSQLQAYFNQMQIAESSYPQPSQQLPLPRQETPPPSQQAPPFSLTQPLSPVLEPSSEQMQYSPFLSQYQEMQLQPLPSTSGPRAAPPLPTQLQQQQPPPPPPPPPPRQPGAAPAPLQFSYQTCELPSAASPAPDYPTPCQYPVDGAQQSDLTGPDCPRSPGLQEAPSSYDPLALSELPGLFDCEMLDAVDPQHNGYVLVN

| SMILES | IC50 [nM] |
| --- | --- |
| COC1(COc2noc(C)c2-c2ccn3nc(NC(=O)C4CC4)cc3c2)CNC1 [Example 76, N-[5-[3-[(3-methoxyazetidin-3-yl)methoxy]-5-methyl-isoxazol-4-yl]pyrazolo[1,5-a]pyridin-2-yl]cyclopropanecarboxamide] | 12.2 |
| Cc1onc(OCC2(C#N)CNC2)c1-c1ccn2nc(NC(=O)C3CC3)cc2c1 [Example 77, N-[5-[3-[(3-cyanoazetidin-3-yl)methoxy]-5-methyl-isoxazol-4-yl]pyrazolo[1,5-a]pyridin-2-yl]cyclopropanecarboxamide] | 12.9 |
| Cc1onc(OC[C@H]2CN(C)CCO2)c1-c1ccn2nc(NC(=O)C3CC3)cc2c1 [Example 79, N-[5-[5-methyl-3-[[(2R)-4-methylmorpholin-2-yl]methoxy]isoxazol-4-yl]pyrazolo[1,5-a]pyridin-2-yl]cyclopropanecarboxamide] | 120 |
| Cc1onc(O[C@H]2CNC[C@H]2F)c1-c1ccn2nc(NC(=O)C3CC3)cc2c1 [Example 80, N-[5-[3-[(3S,4R)-4-fluoropyrrolidin-3-yl]oxy-5-methyl-isoxazol-4-yl]pyrazolo[1,5-a]pyridin-2-yl]cyclopropanecarboxamide] | 146 |
| Cc1onc(OC[C@]23CN[C@H](CO2)C3)c1-c1ccn2nc(NC(=O)C3CC3)cc2c1 [Example 81, N-[5-[5-methyl-3-[[(1S,4S)-5-oxa-2-azabicyclo[2.2.1]heptan-4-yl]methoxy]isoxazol-4-yl]pyrazolo[1,5-a]pyridin-2-yl]cyclopropanecarboxamide] | 9.7 |
| Cc1onc(O[C@H]2CNC[C@@H]2F)c1-c1ccn2nc(NC(=O)C3CC3)cc2c1 [Example 82, N-[5-[3-[(3S,4S)-4-fluoropyrrolidin-3-yl]oxy-5-methyl-isoxazol-4-yl]pyrazolo[1,5-a]pyridin-2-yl]cyclopropanecarboxamide] | 3950 |
| Cc1onc(OCC2(F)CNC2)c1-c1ccn2nc(NC(=O)C3CC3)cc2c1 [Example 83, N-[5-[3-[(3-fluoroazetidin-3-yl)methoxy]-5-methyl-isoxazol-4-yl]pyrazolo[1,5-a]pyridin-2-yl]cyclopropanecarboxamide] | 10.9 |
| Cc1onc(OCC2(F)CN(C)C2)c1-c1ccn2nc(NC(=O)C3CC3)cc2c1 [Example 84, N-[5-[3-[(3-fluoro-1-methyl-azetidin-3-yl)methoxy]-5-methyl-isoxazol-4-yl]pyrazolo[1,5-a]pyridin-2-yl]cyclopropanecarboxamide] | 204 |
| Cc1onc(O[C@@H]2CN[C@H](C)C2)c1-c1ccn2nc(NC(=O)C3CC3)cc2c1 [Example 85, N-[5-[5-methyl-3-[(3S,5R)-5-methylpyrrolidin-3-yl]oxy-isoxazol-4-yl]pyrazolo[1,5-a]pyridin-2-yl]cyclopropanecarboxamide] | 32.1 |
| Cc1onc(OC[C@H]2CNCC(C)(C)O2)c1-c1ccn2nc(NC(=O)C3CC3)cc2c1 [Example 86, N-[5-[3-[[(2R)-6,6-dimethylmorpholin-2-yl]methoxy]-5-methyl-isoxazol-4-yl]pyrazolo[1,5-a]pyridin-2-yl]cyclopropanecarboxamide] | 1.3 |
| Cc1onc(OC[C@H]2CCN2C)c1-c1ccn2nc(NC(=O)C3CC3)cc2c1 [Example 87, N-[5-[5-methyl-3-[[(2R)-1-methylazetidin-2-yl]methoxy]isoxazol-4-yl]pyrazolo[1,5-a]pyridin-2-yl]cyclopropanecarboxamide] | 16.5 |
| CO[C@H]1CNC[C@H]1Oc1noc(C)c1-c1ccn2nc(NC(=O)C3CC3)cc2c1 [Example 88, N-[5-[3-[(3R,4S)-4-methoxypyrrolidin-3-yl]oxy-5-methyl-isoxazol-4-yl]pyrazolo[1,5-a]pyridin-2-yl]cyclopropanecarboxamide] | 11.5 |
| Cc1onc(OC[C@H]2NCC2(C)C)c1-c1ccn2nc(NC(=O)C3CC3)cc2c1 [Example 89, N-[5-[3-[[(2S)-3,3-dimethylazetidin-2-yl]methoxy]-5-methyl-isoxazol-4-yl]pyrazolo[1,5-a]pyridin-2-yl]cyclopropanecarboxamide] | 15.9 |
| Cc1cc(Nc2cc3cc(-c4c(O[C@@H]5CN[C@H](C)C5)noc4C)ccn3n2)nc(C)n1 [Example 90, N-(2,6-dimethylpyrimidin-4-yl)-5-[5-methyl-3-[(3S,5R)-5-methylpyrrolidin-3-yl]oxy-isoxazol-4-yl]pyrazolo[1,5-a]pyridin-2-amine] | 14.4 |
| Cc1cc(Nc2cc3cc(-c4c(OC[C@H]5CCN5C)noc4C)ccn3n2)nc(C)n1 [Example 91, N-(2,6-dimethylpyrimidin-4-yl)-5-[5-methyl-3-[[(2R)-1-methylazetidin-2-yl]methoxy]isoxazol-4-yl]pyrazolo[1,5-a]pyridin-2-amine] | 6.4 |
| Cc1cc(Nc2cc3cc(-c4c(O[C@@H]5CNC[C@@H]5F)noc4C)ccn3n2)nc(C)n1 [Example 92, N-(2,6-dimethylpyrimidin-4-yl)-5-[3-[(3R,4S)-4-fluoropyrrolidin-3-yl]oxy-5-methyl-isoxazol-4-yl]pyrazolo[1,5-a]pyridin-2-amine] | 4.3 |
| Cc1cc(Nc2cc3cc(-c4c(O[C@@H]5CNC[C@@H]5F)noc4C)ccn3n2)nnc1C [Example 93, N-(5,6-dimethylpyridazin-3-yl)-5-[3-[(3R,4S)-4-fluoropyrrolidin-3-yl]oxy-5-methyl-isoxazol-4-yl]pyrazolo[1,5-a]pyridin-2-amine] | 4.7 |
| CO[C@H]1CNC[C@H]1Oc1noc(C)c1-c1ccn2nc(Nc3cc(C)nc(C)n3)cc2c1 [Example 94, N-(2,6-dimethylpyrimidin-4-yl)-5-[3-[(3R,4S)-4-methoxypyrrolidin-3-yl]oxy-5-methyl-isoxazol-4-yl]pyrazolo[1,5-a]pyridin-2-amine] | 10.3 |
| CO[C@H]1CNC[C@H]1Oc1noc(C)c1-c1ccn2nc(Nc3cc(C)c(C)nn3)cc2c1 [Example 95, N-(5,6-dimethylpyridazin-3-yl)-5-[3-[(3R,4S)-4-methoxypyrrolidin-3-yl]oxy-5-methyl-isoxazol-4-yl]pyrazolo[1,5-a]pyridin-2-amine] | 5.3 |
| CO[C@H]1CNC[C@H]1Oc1cnn(C(F)F)c1-c1ccn2nc(Nc3cc(C)nc(C)n3)cc2c1 [Example 96, 5-[2-(difluoromethyl)-4-[(3R,4S)-4-methoxypyrrolidin-3-yl]oxy-pyrazol-3-yl]-N-(2,6-dimethylpyrimidin-4-yl)pyrazolo[1,5-a]pyridin-2-amine] | 6.8 |
| COc1nnc(Nc2cc3cc(-c4c(OC[C@H]5CCN5C)cnn4C(F)F)ccn3n2)cc1C [Example 97, 5-[2-(difluoromethyl)-4-[[(2R)-1-methylazetidin-2-yl]methoxy]pyrazol-3-yl]-N-(6-methoxy-5-methyl-pyridazin-3-yl)pyrazolo[1,5-a]pyridin-2-amine] | 2.9 |
| Cc1ccc(Nc2cc3cc(-c4c(OC[C@H]5CCN5C)cnn4C(F)F)ccn3n2)nn1 [Example 98, 5-[2-(difluoromethyl)-4-[[(2R)-1-methylazetidin-2-yl]methoxy]pyrazol-3-yl]-N-(6-methylpyridazin-3-yl)pyrazolo[1,5-a]pyridin-2-amine] | 7.9 |
| Cc1cc(Nc2cc3cc(-c4c(OC[C@H]5OCC[C@@H]5O)cnn4C(F)F)ccn3n2)nc(C)n1 [Example 99, (2R,3S)-2-[[1-(difluoromethyl)-5-[2-[(2,6-dimethylpyrimidin-4-yl)amino]pyrazolo[1,5-a]pyridin-5-yl]pyrazol-4-yl]oxymethyl]tetrahydrofuran-3-ol] | 10.9 |
| Cc1cc(Nc2cc3cc(-c4c(OC[C@H]5CCN5C)cnn4C)ccn3n2)nc(C(F)F)n1 [Example 102, N-[2-(difluoromethyl)-6-methyl-pyrimidin-4-yl]-5-[2-methyl-4-[[(2R)-1-methylazetidin-2-yl]methoxy]pyrazol-3-yl]pyrazolo[1,5-a]pyridin-2-amine] | < 0.847 |
| CCN1CC[C@@H]1COc1cnn(C)c1-c1ccn2nc(Nc3cc(C)nc(C(F)F)n3)cc2c1 [Example 103, N-[2-(difluoromethyl)-6-methyl-pyrimidin-4-yl]-5-[4-[[(2R)-1-ethylazetidin-2-yl]methoxy]-2-methyl-pyrazol-3-yl]pyrazolo[1,5-a]pyridin-2-amine] | < 0.847 |
| CCN1CC[C@@H]1COc1cnn(C(F)F)c1-c1ccn2nc(Nc3cnn(C)c3)cc2c1 [Example 104, 5-[2-(difluoromethyl)-4-[[(2R)-1-ethylazetidin-2-yl]methoxy]pyrazol-3-yl]-N-(1-methylpyrazol-4-yl)pyrazolo[1,5-a]pyridin-2-amine] | 16.9 |
| CN1CC[C@H](Oc2cnn(C)c2-c2ccn3nc(NC(=O)C4CC4)cc3c2)C1 [Example 105, N-[5-[2-methyl-4-[(3S)-1-methylpyrrolidin-3-yl]oxy-pyrazol-3-yl]pyrazolo[1,5-a]pyridin-2-yl]cyclopropanecarboxamide] | 43.1 |
| CN1CC[C@@H]1COc1cnn(C)c1-c1ccn2nc(Nc3ccc(C(=O)NCC(C)(C)O)cn3)cc2c1 [Example 106, N-(2-hydroxy-2-methyl-propyl)-6-[[5-[2-methyl-4-[[(2R)-1-methylazetidin-2-yl]methoxy]pyrazol-3-yl]pyrazolo[1,5-a]pyridin-2-yl]amino]pyridine-3-carboxamide] | 2.4 |
| COCCNC(=O)c1ccc(Nc2cc3cc(-c4c(OC[C@H]5CCN5C)cnn4C)ccn3n2)nc1 [Example 107, N-(2-methoxyethyl)-6-[[5-[2-methyl-4-[[(2R)-1-methylazetidin-2-yl]methoxy]pyrazol-3-yl]pyrazolo[1,5-a]pyridin-2-yl]amino]pyridine-3-carboxamide] | 3.3 |
| Cc1nc(Nc2cc3cc(-c4c(OC[C@H]5CCN5C)cnn4C)ccn3n2)cc(C(=O)N(C)C)n1 [Example 108, N,N,2-trimethyl-6-[[5-[2-methyl-4-[[(2R)-1-methylazetidin-2-yl]methoxy]pyrazol-3-yl]pyrazolo[1,5-a]pyridin-2-yl]amino]pyrimidine-4-carboxamide] | 3.3 |
